Values after ≈ are worked out from the molar mass of the structure shown.
Legend:
[1] = test system: LNCaP (human prostate carcinoma); assay: Cell proliferation (MTS) assay, LNCaP; assay type: cell-based; details: Homo sapiens, LNCaP, 72 h, three days treatment
Method: (§1) Results of cell proliferation assays for exemplary compounds are shown below in Tables 1 and 2. Cell lines LNCaP (human prostate carcinoma), MDA468 (human breast cancer cell), MDA435 (human breast adenocarcinoma), and DU145 (human prostate carcinoma[…]) were purchased from American Type Culture Collection (ATCC) (Rockville, Md.). Cells were cultured in RPMI Medium 1640 containing 10% fetal bovine serum (FBS) in a 37° C. incubator containing 5% CO2. All cell culture reagents were purchased from Gibco-BRL (Grand Island, N.Y.). Cells were plated in 96-well culture plates at about 3000 cells per well. One day following plating, compounds or vehicle controls (buffer only) were added to cells. Proliferation assays were performed three days post initiation of treatment.
(§2) For a non-radioactive cell proliferation assay, viable cell densities are determined by measuring metabolic conversion (by viable cells) of the dye MTS tatrazolium dye, a cell proliferation assay known by one of skill in the art (MTS assay), a previously established cell proliferation assay. The assay is performed using an assay kit (Promega Corp., Madison, Wis.). The assay plates are incubated for 1-2 hours, and the results are read in a 96-well format plate reader by measuring absorbance at 490 nm. Effect of each compound is calculated as a percentage of control cell growth obtained from vehicle-treated cells grown in the same plate.

[2] = test system: MDA468 (human breast cancer cell); assay: Cell proliferation (MTS) assay, MDA468; assay type: cell-based; details: Homo sapiens, 72 h, three days treatment
Method: as §1, §2

PI3K = test system: T1, PI3K; assay: Fluorescence polarization assay for PI3K; assay type: biochemical; details: Table 2
T1 construct: PI3K FP IC50
Method: This assay is used to determine the IC50 of compounds of the present invention as it identifies inhibitors of PI3 kinase by measuring inhibition.
The assay is run by placing 5 μL of diluted enzyme per well, then 5 μL of diluted compound (or 9.5 μL enzyme then 0.5 μL compound in DMSO) is added and mixed. Then, 10 μL substrate is added to start the reaction. The samples are incubated 30-60 minutes, then the reaction is stopped by adding 20 μL stop/detector mix.
PI3K is diluted with reaction buffer (e.g., 5 μL or 7.5 μL PI3K into 620 μL reaction buffer), and 5 μL of diluted enzyme is used per well. 5 μL reaction buffer or drug diluted in buffer (e.g., 4 μL/100 so final DMSO is 1% in reaction) is added to each. The samples are mixed by pipetting up and down. Alternatively, the enzyme can be diluted to 1215 μL. In this case 9.8 μL is added per well and 0.2 μL compound is added in DMSO.
To prepare 1 mL of substrate solution, 955 μL reaction buffer, 40 μL PIP2, and 2.5 μL ATP are mixed. 10 μL of substrate is added to each well to start the reaction.
Stop/detector mix is prepared by mixing 4 μL Red detector and 1.6 μL or 2.0 μL GST-GRP with 1 mL Stop buffer, which results in 10 nM probe and 70 nM GST-GRP). 20 μL of the stop/detector mix is added to each well to stop the reaction. The plates are read after 30-90 minutes keeping the red probe solutions dark.
For the zero time point, stop/detector mix is added to the enzyme just before adding substrate. For an extra control, stop/detector mix is added to buffer (no enzyme) and substrate or to just buffer (no substrate).
The recommended reaction has 0.06 μL per 20 μL (0.015 μg/20 μL) or 0.01125 μg/15 μL or 0.75 μg/mL.
Plates are read on machines with filters for Tamra. The units are mP with no enzyme controls reading app 190-220 mP units. Fully active enzyme reduces fluorescence polarization down to 70-100 mP after 30 minutes. An active cpd raises the mP values halfway to control or to 120-150 mP units.

[3] = test system: phosphor-AKT (S473) in Rat1 cells; assay: Rat1-IGF1 assay (IGF-1 induced phospho-AKT immunoblot); assay type: cell-based, rat; details: Rattus norvegicus
Method: Rat1 cells are plated in 6-well culture plates and serum-starved for 24 hours. Serum-starved cells are treated either with control vehicle or with various concentrations of 17-HWT for 2 hours, stimulated by IGF-1 (100 ng/mL) for 30 minutes. Total cellular lysates are prepared using NuPAGE-LDS sample buffer (Invitrogen), sonicated and then clarified by centrifugation. Equal amounts of proteins are subject to immunoblotting analysis using NuPAGE electrophoresis system and probed with phosphor-AKT (S473), total AKT antibodies (Signaling Technology).

Human TOR = molecular target: T2, Human TOR (Homo sapiens, UniProt P42345); assay: Human TOR (mTOR) kinase assay, DELFIA format; assay type: biochemical
T2 construct: FLAG
Method: The PI3K/AKT/TOR pathway is critical for cell proliferation, growth, survival, and angiogensis. Accordingly, compounds of the present invention may also be useful to inhibit TOR activity. Similar in vivo and in vitro assays to those described above with reference to PI3K can be used to determine the minimum concentration of compound sufficient to inhibit TOR. A human TOR assay and a Rat1-IGF1 assay as described in Examples 67 and 68, respectively was performed with some embodiments of the invention. The results of these assays are shown below in Tables 1 and 2.
Human TOR assays (See Toral-Barza, et al. Biochem Biophys. Res. Commun. 2005 Jun. 24; 332(1):304-10) with purified enzyme are performed in 96-well plates by DELFIA format as follows. Enzymes are first diluted in kinase assay buffer (10 mM Hepes (pH 7.4), 50 mM NaCl, 50 mM b-glycerophosphate, 10 mM MnCl2, 0.5 mM DTT, 0.25 mM microcystin LR, and […] BSA). To each well, 12 mL of the diluted enzyme is mixed briefly with 0.5 mL test inhibitor or control vehicle dimethylsulfoxide (DMSO). The kinase reaction is initiated by adding 12.5 mL kinase assay buffer containing ATP and His6-S6K to give a final reaction volume of 25 mL containing 800 ng/mL FLAG-TOR, […] ATP and […] His6-S6K. The reaction plate is incubated for 2 hours (linear at 1-6 hours) at room temperature with gentle shaking and then terminated by adding 25 mL Stop buffer (20 mM Hepes (pH 7.4), 20 mM EDTA, 20 mM EGTA). The DELFIA detection of the phosphorylated (Thr-389) His6-S6K is performed at room temperature using a monoclonal anti-P(T389)-p70S6K antibody (1A5, Cell Signaling) labeled with Europium-N1-ITC (Eu) (10.4 Eu per antibody, PerkinElmer). The DELFIA Assay buffer and Enhancement solution can be purchased from PerkinElmer. 45 mL of the terminated kinase reaction mixture is transferred to a MaxiSorp plate (Nunc) containing 55 mL PBS. The His6-S6K is allowed to attach for 2 hours after which the wells are aspirated and washed once with PBS. 100 mL of DELFIA Assay buffer with 40 ng/mL Eu-P(T389)-S6K antibody is added. The antibody binding is continued for 1 hour with gentle agitation. The wells are then aspirated and washed 4 times with PBS containing 0.05% Tween-20 (PBST). […] of DELFIA Enhancement solution is added to each well and the plates are read in a PerkinElmer Victor model plate reader. Data obtained is used to calculate enzymatic activity and enzyme inhibition by potential inhibitors.

[4] = test system: DU145 (human prostate carcinoma/lymphocytic leukemia); assay: Cell proliferation (MTS) assay, DU145; assay type: cell-based; details: Homo sapiens, DU-145, 72 h, three days treatment
Method: as §1, §2

[5] = test system: MDA435 (human breast adenocarcinoma); assay: Cell proliferation (MTS) assay, MDA435; assay type: cell-based; details: Homo sapiens, MDA435, 72 h, three days treatment
Method: as §1, §2

Compound	IC50 ([1]; Table 1) [µg/mL]	IC50 (Human TOR; Table 1) [µM]	IC50 ([4]; Table 1) [µg/mL]	IC50 ([2]; Table 1) [µg/mL]	IC50 ([5]; Table 1) [µg/mL]	IC50 ([3]; Table 1) [µg/mL]	IC50 ([1]; Table 2) [µg/mL]	IC50 ([2]; Table 2) [µg/mL]	IC50 (PI3K) [µM]	IC50 ([3]; Table 2) [µg/mL]	IC50 (Human TOR; Table 2) [µM]	IC50 ([4]; Table 2) [µg/mL]	IC50 ([5]; Table 2) [µg/mL]
CCN(/C=C1/C(=O)O[C@H](COC)[C@@]2(C)C1=C(O)C(=O)C1=C2[C@H](O)C[C@]2(C)[C@@H](O)CC[C@@H]12)CC [Compound 50, (1E,4S,4aR,5R,6aS,7S,9aR)-1-[(diethylamino)methylene]-5,7,11-trihydroxy-4-(methoxymethyl)-4a,6a-dimethyl-4a,5,6,6a,7,8,9,9a-octahydroindeno[4,5-h]isochromene-2,10(1H,4H)-dione]							0.25 (≈ 0.542 µM)	2.5 (≈ 5.42 µM)	7.58	> 0.1			
COC[C@H]1OC(=O)/C(=C/N(C)CCCN(C)C)C2=C(O)C(=O)C3=C([C@H](OC(C)=O)C[C@@]4(C)C3CC[C@@H]4O)[C@]21C (stereo partly drawn) [Compound 5, (1E,4S,4aR,5R,6aS,7S)-1-{[[3-(dimethylamino)propyl](methyl)amino]methylene}-7,11-dihydroxy-4-(methoxymethyl)-4a,6a-dimethyl-2,10-dioxo-1,2,4,4a,5,6,6a,7,8,9,9a,10-dodecahydroindeno[4,5-h]isochromen-5-yl acetate]	0.4	2.56	10	1.8	15	0.02	0.28	2			1.28	9.5	8.2
COC[C@H]1OC(=O)/C(=C/N2CCN(c3ccccc3)CC2)C2=C(O)C(=O)C3=C([C@H](OC(C)=O)C[C@@]4(C)C3CC[C@@H]4O)[C@]21C (stereo partly drawn) [Compound 13, (1E,4S,4aR,5R,6aS,7S)-7,11-dihydroxy-4-(methoxymethyl)-4a,6a-dimethyl-2,10-dioxo-1-[(4-phenylpiperazin-1-yl)methylene]-1,2,4,4a,5,6,6a,7,8,9,9a,10-dodecahydroindeno[4,5-h]isochromen-5-yl acetate]	0.8	0.607	15	2	> 15	0.05	0.33	3.5			0.776	17	13

Further compounds by falling IC50 (Human TOR; Table 1), results first:

IC50 ([1]; Table 1) [µg/mL]	IC50 (Human TOR; Table 1) [µM]	IC50 ([4]; Table 1) [µg/mL]	IC50 ([2]; Table 1) [µg/mL]	IC50 ([5]; Table 1) [µg/mL]	IC50 ([3]; Table 1) [µg/mL]	Compound	IC50 ([1]; Table 2) [µg/mL]	IC50 ([2]; Table 2) [µg/mL]	IC50 (PI3K) [µM]	IC50 ([3]; Table 2) [µg/mL]	IC50 (Human TOR; Table 2) [µM]	IC50 ([4]; Table 2) [µg/mL]	IC50 ([5]; Table 2) [µg/mL]
0.9	2.45	15	2.3	> 15	0.02	COC[C@H]1OC(=O)/C(=C/N2CCC(c3ccccc3)CC2)C2=C(O)C(=O)C3=C([C@H](OC(C)=O)C[C@@]4(C)C3CC[C@@H]4O)[C@]21C (stereo partly drawn) [Compound 15, (1E,4S,4aR,5R,6aS,7S)-7,11-dihydroxy-4-(methoxymethyl)-4a,6a-dimethyl-2,10-dioxo-1-[(4-phenylpiperidin-1-yl)methylene]-1,2,4,4a,5,6,6a,7,8,9,9a,10-dodecahydroindeno[4,5-h]isochromen-5-yl acetate]							
0.8	1.9	15	1.8	> 15	0.02	COC[C@H]1OC(=O)/C(=C/N2CCCCC2)C2=C(O)C(=O)C3=C([C@H](OC(C)=O)C[C@@]4(C)C3CC[C@@H]4O)[C@]21C (stereo partly drawn) [Compound 11, (1E,4S,4aR,5R,6aS,7S)-7,11-dihydroxy-4-(methoxymethyl)-4a,6a-dimethyl-2,10-dioxo-1-(piperidin-1-ylmethylene)-1,2,4,4a,5,6,6a,7,8,9,9a,10-dodecahydroindeno[4,5-h]isochromen-5-yl acetate]							
0.58	0.829	15	2	> 15	0.02	COC[C@H]1OC(=O)/C(=C/N2CCN(C)CC2)C2=C(O)C(=O)C3=C([C@H](OC(C)=O)C[C@@]4(C)C3CC[C@@H]4O)[C@]21C (stereo partly drawn) [Compound 14, (1E,4S,4aR,5R,6aS,7S)-7,11-dihydroxy-4-(methoxymethyl)-4a,6a-dimethyl-1-[(4-methylpiperazin-1-yl)methylene]-2,10-dioxo-1,2,4,4a,5,6,6a,7,8,9,9a,10-dodecahydroindeno[4,5-h]isochromen-5-yl acetate]							
0.88	0.818	> 15	2	> 15	0.02	COC[C@H]1OC(=O)/C(=C/N2CCN(C3CCCCC3)CC2)C2=C(O)C(=O)C3=C([C@H](OC(C)=O)C[C@@]4(C)C3CC[C@@H]4O)[C@]21C (stereo partly drawn) [Compound 7, (1E,4S,4aR,5R,6aS,7S)-1-[(4-cyclohexylpiperazin-1-yl)methylene]-7,11-dihydroxy-4-(methoxymethyl)-4a,6a-dimethyl-2,10-dioxo-1,2,4,4a,5,6,6a,7,8,9,9a,10-dodecahydroindeno[4,5-h]isochromen-5-yl acetate]							
